These results are taken from patent publication US20250333424A1, “ANTIVIRAL COMPOUNDS” (Gilead Sciences, Inc., priority 2024, published 2025).

The assay deals with monocytic THP1 cells infected with HIV VSV-G pseudotyped GFP-NEF reporter virus. Kind of assay: cells. Format: cell-based. The note with it: Human immunodeficiency virus 1, THP-1, 24 h.
As usually defined, the EC50 is the concentration at which the effect is half-maximal. A low value points to a more potent agent. In turn, `Cc1cc(/C=C/C#N)cc(C)c1Oc1nc(NC23CC(C#N)(C2)C3)nc2nc3n(c12)C[C@H](F)CO3` (single isomer, unassigned) [Compound 192] yielded an EC50 of 27.1 nM.

On to `Cc1cc(/C=C/C#N)cc(C)c1Oc1nc(NC23CC(C#N)(C2)C3)nc2nc3n(c12)C[C@@H](O)CO3` (single isomer, unassigned) [Compound 193], for which the EC50 came out at 319 nM. On to `COCn1cc(N2C(=O)c3nc(NC45CC(C#N)(C4)C5)nc(Oc4c(C)cc(/C=C/C#N)cc4C)c3C2C)cn1` (stereo not shown) [Example 223, (E)-3-((4-(4-(2-cyanovinyl)-2,6-dimethylphenoxy)-6-(1-(methoxymethyl)-1H-pyrazol-4-yl)-5-methyl-7-oxo-6,7-dihydro-5H-pyrrolo[3,4-d]pyrimidin-2-yl)amino)bicyclo[1.1.1]pentane-1-carbonitrile], for which the response was half-maximal at 38.3 nM (EC50). In the case of `Cc1cc(/C=C/C#N)cc(C)c1Oc1nc(NC23CC(C#N)(C2)C3)nc2c1[C@@]1(C)O[C@H]3CC[C@H]3N1C2=O` (relative stereo) [Compound 285, 3-(((4bR,5aS,7aR)-4-(4-((E)-2-cyanovinyl)-2,6-dimethylphenoxy)-4b-methyl-9-oxo-4b,5a,6,7,7a,9-hexahydrocyclobuta[4′,5′]oxazolo[3′,2′:1,5]pyrrolo[3,4-d]pyrimidin-2-yl)amino)bicyclo[1.1.1]pentane-1-carbonitrile] it was 92.5 nM; in that of `Cc1cc(/C=C/C#N)cc(C)c1Oc1nc(NC23CC(C#N)(C2)C3)nc2[nH]nc(O)c12` [Compound 110, (E)-3-((4-(4-(2-cyanovinyl)-2,6-dimethylphenoxy)-3-hydroxy-1H-pyrazolo[3,4-d]pyrimidin-6-yl)amino)bicyclo[1.1.1]pentane-1-carbonitrile], > 1000 nM. `Cc1cc(/C=C/C#N)cc(C)c1Oc1nc(NC23CC(C#N)(C2)C3)nc2c1C(C)N(C)C2=O` (stereo not shown) [Compound 140, (E)-3-((4-(4-(2-cyanovinyl)-2,6-dimethylphenoxy)-5,6-dimethyl-7-oxo-6,7-dihydro-5H-pyrrolo[3,4-d]pyrimidin-2-yl)amino)bicyclo[1.1.1]pentane-1-carbonitrile] displayed an EC50 of 14.3 nM. In turn, `Cc1cc(/C=C/C#N)cc(C)c1Oc1nc(NC23CC(C#N)(C2)C3)nc2c1[C@H]1OCCCN1C2=O` [Compound 280, (R,E)-3-((4-(4-(2-cyanovinyl)-2,6-dimethylphenoxy)-10-oxo-4b,7,8,10-tetrahydro-6H-pyrimido[5′,4′:3,4]pyrrolo[2,1-b][1,3]oxazin-2-yl)amino)bicyclo[1.1.1]pentane-1-carbonitrile] showed an EC50 of 33.7 nM.

Regarding `Cc1cc(/C=C/C#N)cc(C)c1Oc1nc(NC23CC(C#N)(C2)C3)nc2nn3c(c12)COCC3` [Example 259, (E)-3-((4-(4-(2-cyanovinyl)-2,6-dimethylphenoxy)-7,8-dihydro-5H-pyrimido[4′,5′:3,4]pyrazolo[5,1-c][1,4]oxazin-2-yl)amino)bicyclo[1.1.1]pentane-1-carbonitrile], the EC50 came to 23.6 nM. This EC50 and that of the compound before are within 1.5-fold of each other. In the case of `Cc1cc(/C=C/C#N)cc(C)c1Oc1nc(NC23CC(C#N)(C2)C3)nc2c1C1(C)OCC(C(F)(F)F)CN1C2=O` (stereo not shown) [Example 253, (E)-3-((4-(4-(2-cyanovinyl)-2,6-dimethylphenoxy)-4b-methyl-10-oxo-7-(trifluoromethyl)-4b,7,8,10-tetrahydro-6H-pyrimido[5′,4′:3,4]pyrrolo[2,1-b][1,3]oxazin-2-yl)amino)bicyclo[1.1.1]pentane-1-carbonitrile] it was 253 nM. The result for `Cc1cc(/C=C/C#N)cc(C)c1Oc1nc(NC23CC(C#N)(C2)C3)nc2c1nc1n2CC2(CC2)CO1` [Compound 274, (E)-3-((4′-(4-(2-cyanovinyl)-2,6-dimethylphenoxy)-7′H,9′H-spiro[cyclopropane-1,8′-[1,3]oxazino[3,2-e]purin]-2′-yl)amino)bicyclo[1.1.1]pentane-1-carbonitrile] reads 111 nM.
